Measured values taken from patent US20260250318A1, “COMPOSITIONS AND METHODS FOR CROSSING THE BLOOD BRAIN BARRIER” (VOYAGER THERAPEUTICS, INC., priority 2022, published 2026).

Tested on: brains, heart, liver, muscle, and DRG of the NHPs
Assay: Maturation of TTM-001 and TTM-002 capsids, NGS enrichment in NHP tissues
Assay type: in vivo
Source text: This Example describes maturation of the AAV9 capsid variants, TTM-001 (SEQ ID NO: 981 (amino acid) and 983 (DNA), comprising SEQ ID NO: 941 (encoded by SEQ ID NO: 942)) and TTM-002 (SEQ ID NO: 982 (amino acid) and 984 (DNA), comprising SEQ ID NO: […] (encoded by SEQ ID NO: 944)) in NHPs to further enhance their transduction and biodistribution in the central nervous system as well as other tissues, and evolve the AAV capsid variants to provide further cross-species compatibility. Two approaches were used to mature the TTM-001 and TTM-002 capsid sequences in order to randomize and mutate within and around the peptide insert comprised within loop IV of the capsid variant. […] In the first maturation approach, sets of three contiguous amino acids were randomized across the mutagenesis region in the TTM-001 and TTM-002 sequences, which spanned from position 450 to position 466, numbered according to SEQ ID NO: 981 and 982. In the second maturation approach, mutagenic primers were used to introduce point mutations at a low frequency, scattered across the mutagenesis region in the TTM-001 and TTM-002 sequences ranging from position 449 to position 466, numbered according to SEQ ID NO: 981 and 982. AAV capsid variants arising from each maturation approach for TTM-001 and TTM-002 were pooled together, for subsequent testing and characterization in NHPs.
The library of pooled matured AAV capsid variants generated using the first maturation approach and the second maturation approach for the TTM-001 and TTM-002 AAV capsid variants were injected into two NHPs. […] Following RNA recovery and RT-PCR amplification, a systematic NGS enrichment analysis was performed to calculate the fold enrichment ratio relative to an AAV9 control, and the peptides comprised within the variants were identified.
Following the RNA recovery and NGS analysis from the second maturation approach, approximately 680,000 capsid variants were identified. The 680,000 matured capsid variants were then filtered based on samples with a raw virus count greater than 10 and a coefficient of variance (CV) of less than 1, which was calculated for each peptide across the brain samples taken from the two NHPs. […] Using this filtering criteria, this led to approximately 64,000 matured capsid variants.

[1] = NHP DRG, NGS, relative to AAV9 control
[2] = NHP brain, NGS, relative to AAV9 control
[3] = NHP heart, NGS, relative to AAV9 control
[4] = NHP liver DNA, NGS, relative to AAV9 control
[5] = NHP liver RNA, NGS, TTM-001 and TTM-002 matured AAV capsid variants, relative to AAV9 control
[6] = NHP muscle, NGS, relative to AAV9 control
[7] = NGS fold-enrichment, DRG, NHP, relative to AAV9
[8] = NGS fold-enrichment, brain, NHP, relative to AAV9
[9] = NGS fold-enrichment, heart, NHP, relative to AAV9
[10] = NGS fold-enrichment, liver DNA, NHP, relative to AAV9
[11] = NGS fold-enrichment, liver RNA, NHP, relative to AAV9
[12] = NGS fold-enrichment, muscle, NHP, relative to AAV9

Row | Sequence | Fold Enrichment relative to AAV9, DRG (NHP) [1] [fold] | Fold Enrichment relative to AAV9, Brain (NHP) [2] [fold] | Fold Enrichment relative to AAV9, Heart (NHP) [3] [fold] | Fold Enrichment relative to AAV9, Liver DNA (NHP) [4] [fold] | Fold Enrichment relative to AAV9, Liver RNA (NHP) [5] [fold] | Fold Enrichment relative to AAV9, Muscle (NHP) [6] [fold] | Fold Enrichment relative to AAV9, DRG (NHP) [7] [fold] | Fold Enrichment relative to AAV9, Brain (NHP) [8] [fold] | Fold Enrichment relative to AAV9, Heart (NHP) [9] [fold] | Fold Enrichment relative to AAV9, Liver DNA (NHP) [10] [fold] | Fold Enrichment relative to AAV9, Liver RNA (NHP) [11] [fold] | Fold Enrichment relative to AAV9, Muscle (NHP) [12] [fold]
1 | KTINGSGSPHRWLQNQQT | 0.000 | 0.000 | 0.000 | 6.882 | 28.147 | 0.000 | – | – | – | – | – | –
2 | KTINGSGSPHSKAPRRQT | 0.000 | 0.000 | 0.000 | 3.940 | 21.645 | 0.000 | – | – | – | – | – | –
3 | KFFHGSGSPHSKAQNQQT | 0.000 | 0.000 | 0.000 | 0.897 | 15.412 | 0.000 | – | – | – | – | – | –
4 | KTINGSGSPHSFPFNQQT | 0.000 | 0.000 | 0.000 | 4.693 | 38.584 | 0.000 | – | – | – | – | – | –
5 | KTINGSGSPHSKAFSWQT | 0.000 | 0.000 | 0.000 | 1.805 | 51.304 | 0.000 | – | – | – | – | – | –
6 | KTINGSYSPHCLAQNQQT (peptide inserted in AAV capsid) | 0.000 | 0.000 | 0.000 | 0.309 | 62.942 | 0.000 | – | – | – | – | – | –
7 | KTINGSGSPHSKCTSQQT | – | – | – | – | – | – | 0.232 | 0.493 | 1.413 | 5.821 | 10.311 | 2.353
8 | KTINGSGSPHSKRVVQQT | 0.000 | 0.000 | 0.000 | 1.639 | 11.094 | 0.000 | – | – | – | – | – | –
9 | KYVFGSGSPHSKAQNQQT (peptide inserted in AAV capsid) | 0.000 | 0.000 | 0.000 | 2.346 | 22.232 | 0.000 | – | – | – | – | – | –
10 | KPFLGSGSPHSKAQNQQT | – | – | – | – | – | – | 0.000 | 0.000 | 0.000 | 1.328 | 10.318 | 0.000
11 | KTIVGSGSPHSKPQNQQT | – | – | – | – | – | – | 0.000 | 0.000 | 0.000 | 0.894 | 10.381 | 0.000
12 | KTINGSGSPHSKWGLQQT | 0.000 | 0.000 | 0.000 | 2.639 | 17.543 | 0.000 | – | – | – | – | – | –
13 | KTINGSGSPHPFVQNQQT | 0.000 | 0.000 | 0.000 | 1.286 | 12.091 | 0.000 | – | – | – | – | – | –
14 | KTINGSGSPHSKAHARQT | 0.000 | 0.000 | 0.000 | 1.800 | 17.075 | 0.000 | – | – | – | – | – | –
15 | KTINGSGSPHSKCFLQQT | 0.000 | 0.000 | 0.000 | 1.434 | 22.987 | 0.000 | – | – | – | – | – | –
16 | KTRKRSGSPHSKAQNQQT | 0.000 | 0.000 | 0.000 | 2.075 | 16.603 | 0.000 | – | – | – | – | – | –
17 | KTINGSGSPHSKAQFCLT | – | – | – | – | – | – | 0.000 | 0.000 | 0.000 | 3.371 | 10.065 | 0.000
18 | KTQRKSGSPHSKAQNQQT | 0.000 | 0.000 | 0.000 | 1.439 | 119.659 | 0.000 | – | – | – | – | – | –
19 | KPARGSGSPHSKAQNQQT | 0.000 | 0.000 | 0.000 | 1.391 | 16.793 | 0.000 | – | – | – | – | – | –
20 | KTISGHDSPHISGQYQQT | 0.000 | 0.000 | 0.074 | 0.420 | 12.395 | 1214.588 | – | – | – | – | – | –
21 | KTINGSGSPHRPWQNQQT | 0.000 | 0.000 | 0.000 | 4.936 | 16.869 | 0.000 | – | – | – | – | – | –
22 | KPRWGSGSPHSKAQNQQT | 0.000 | 0.000 | 375.537 | 0.386 | 51.637 | 0.000 | – | – | – | – | – | –
23 | KTINGSGSPHSFWSNQQT | 0.000 | 0.000 | 0.000 | 1.345 | 22.857 | 0.000 | – | – | – | – | – | –
24 | KTINGSISPHCPAQNQQT | 0.000 | 0.000 | 0.000 | 0.556 | 24.932 | 0.000 | – | – | – | – | – | –
